What was measured:
[1] = test system: DLD-1 colorectal cancer cell line; test: MTT antiproliferative assay, DLD-1; details: for GI% DLD1: 10 µM, 24 h, MTT; for IC50: Homo sapiens, DLD-1, 24 h, read-out: IC50 DLD1 (half maximal growth inhibitory concentration)
Experimental: After the incubation of the tested compounds for 24 h, the percent growth inhibition (GI%) was calculated.
Cells were seeded at 1 × 10^4 cells/well and cultured overnight in a 96-well plate. […] Then, 150 µl DMSO was used to solubilise MTT formazan crystals. Finally, the plates were shaken, and the optical density was determined at 570 nm using ELISA plate reader. At least, three independent experiments were performed. Percentage of growth inhibition was determined as (1-[OD of treated cells/OD of control cells]). […] The IC50 values were calculated using Prism v0.8 software (GraphPad Software Inc., La Jolla, CA).

recombinant human TOP1 = target: T1, recombinant human TOP1 (Homo sapiens, UniProt P11387); test: Topoisomerase I-mediated DNA cleavage assay; details: tested at 0.1, 1, 10, 100 µM
T1 sequence (P11387 1-765): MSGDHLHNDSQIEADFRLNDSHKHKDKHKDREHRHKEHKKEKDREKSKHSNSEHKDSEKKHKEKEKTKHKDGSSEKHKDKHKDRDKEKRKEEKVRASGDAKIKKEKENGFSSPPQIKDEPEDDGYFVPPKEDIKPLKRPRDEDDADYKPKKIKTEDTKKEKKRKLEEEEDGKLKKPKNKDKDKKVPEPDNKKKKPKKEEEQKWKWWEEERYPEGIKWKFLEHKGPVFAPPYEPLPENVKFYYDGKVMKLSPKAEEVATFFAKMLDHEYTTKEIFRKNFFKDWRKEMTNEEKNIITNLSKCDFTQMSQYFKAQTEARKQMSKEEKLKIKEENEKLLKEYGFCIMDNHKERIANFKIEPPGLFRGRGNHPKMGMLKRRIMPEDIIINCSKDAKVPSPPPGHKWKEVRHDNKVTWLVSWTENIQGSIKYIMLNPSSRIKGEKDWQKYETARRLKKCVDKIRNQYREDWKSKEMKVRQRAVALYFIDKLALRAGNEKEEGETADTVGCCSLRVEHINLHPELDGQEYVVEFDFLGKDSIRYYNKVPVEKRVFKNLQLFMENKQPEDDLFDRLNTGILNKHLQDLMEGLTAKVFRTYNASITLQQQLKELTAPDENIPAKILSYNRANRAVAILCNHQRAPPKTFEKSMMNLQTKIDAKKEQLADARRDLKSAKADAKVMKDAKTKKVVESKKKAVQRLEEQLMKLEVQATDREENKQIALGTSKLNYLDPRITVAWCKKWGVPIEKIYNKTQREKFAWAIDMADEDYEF
Experimental: Radiolabeled DNA was incubated with recombinant human TOP1 in 20 µL reaction buffer (10 mmol/L Tris-HCl, pH 7.5, 50 mmol/L KCl, 5 mmol/L MgCl2, 0.1 mmol/L EDTA, and 15 µg/mL BSA) at 30 °C for 20 min in the presence of the indicated drug concentrations. Reactions were terminated by adding SDS (0.5% final concentration) followed by the addition of two volumes of loading dye (80% formamide, 10 mmol/L sodium hydroxide, 1 mmol/L sodium EDTA, 0.1% xylene cyanol, and 0.1% bromophenol blue). Aliquots of reaction mixtures were subjected to 20% denaturing PAGE. Gels were dried and visualised by using PhosphorImager and Image Quant software (Molecular Dynamics).

FRK = target: T2, FRK (Homo sapiens, UniProt P42685); test: Z`-LYTE kinase profiling, FRK; format: biochemical
T2 construct: purchased Invitrogen/Life Technologies

BTK = target: T3, BTK (Homo sapiens, UniProt Q06187); test: Z`-LYTE kinase profiling, BTK; format: biochemical
T3 construct: purchased Invitrogen/Life Technologies

IGF-1R = target: T4, IGF-1R (Homo sapiens, UniProt P08069); test: Z`-LYTE kinase profiling, IGF-1R; format: biochemical
T4 construct: purchased Invitrogen/Life Technologies

VEGFR-2 = target: T5, VEGFR-2 (Homo sapiens, UniProt P35968); test: Z`-LYTE kinase profiling, VEGFR-2; format: biochemical
T5 construct: purchased Invitrogen/Life Technologies

FAK = FAK (Homo sapiens, UniProt Q05397); test: Z`-LYTE kinase inhibitory assay, FAK
HER-2 = target: T6, HER-2 (Homo sapiens, UniProt P04626); test: Z`-LYTE kinase profiling, HER-2; format: biochemical
T6 construct: purchased Invitrogen/Life Technologies

EGFR = EGFR (Homo sapiens, UniProt P00533); test: Z`-LYTE kinase inhibitory assay, EGFR
[2] = test system: HeLa cervical cancer cell line; test: MTT antiproliferative assay, HeLa; format: cell-based; details: 10 µM, 24 h
Experimental: (§1) At least, three independent experiments were performed.

VEGFR-1 = target: T7, VEGFR-1 (Homo sapiens, UniProt P17948); test: Z`-LYTE kinase profiling, VEGFR-1; format: biochemical
T7 construct: purchased Invitrogen/Life Technologies

[3] = test system: HCT-116 colorectal cancer cell line; test: MTT antiproliferative assay, HCT-116; details: for GI% HCT-116: 10 µM, 24 h, MTT; for IC50: Homo sapiens, HCT-116, 24 h, read-out: IC50 HCT-116 (half maximal growth inhibitory concentration)
c-Src = target: T8, c-Src (Homo sapiens, UniProt P12931); test: Z`-LYTE kinase profiling, c-Src; format: biochemical
T8 construct: purchased Invitrogen/Life Technologies

[4] = test system: MCF-7 breast cancer cell line; test: MTT antiproliferative assay, MCF-7; format: cell-based; details: 10 µM, 24 h
Experimental: as §1

[5] = test system: MDMBA-231 breast cancer cell line; test: MTT antiproliferative assay, MDMBA-231; format: cell-based; details: 10 µM, 24 h
Experimental: as §1

T3 sequence (Q06187 whole entry): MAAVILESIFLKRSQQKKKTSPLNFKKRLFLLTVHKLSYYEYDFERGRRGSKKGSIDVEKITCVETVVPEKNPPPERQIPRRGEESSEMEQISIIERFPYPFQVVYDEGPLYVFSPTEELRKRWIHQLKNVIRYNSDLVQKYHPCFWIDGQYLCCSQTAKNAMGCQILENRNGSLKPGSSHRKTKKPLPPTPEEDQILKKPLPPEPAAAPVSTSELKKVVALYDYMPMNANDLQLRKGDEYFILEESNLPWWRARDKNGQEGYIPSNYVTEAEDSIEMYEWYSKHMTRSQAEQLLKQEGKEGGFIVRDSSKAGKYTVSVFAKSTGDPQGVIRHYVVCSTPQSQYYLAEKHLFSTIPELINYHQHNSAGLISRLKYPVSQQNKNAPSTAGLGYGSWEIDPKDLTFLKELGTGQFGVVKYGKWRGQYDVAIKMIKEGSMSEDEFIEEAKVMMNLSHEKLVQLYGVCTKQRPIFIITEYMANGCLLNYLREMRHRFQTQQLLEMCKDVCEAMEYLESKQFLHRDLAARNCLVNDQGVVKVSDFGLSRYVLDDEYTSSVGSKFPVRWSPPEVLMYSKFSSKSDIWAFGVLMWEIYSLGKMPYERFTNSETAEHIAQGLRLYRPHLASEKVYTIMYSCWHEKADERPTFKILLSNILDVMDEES
T8 sequence (P12931 whole entry): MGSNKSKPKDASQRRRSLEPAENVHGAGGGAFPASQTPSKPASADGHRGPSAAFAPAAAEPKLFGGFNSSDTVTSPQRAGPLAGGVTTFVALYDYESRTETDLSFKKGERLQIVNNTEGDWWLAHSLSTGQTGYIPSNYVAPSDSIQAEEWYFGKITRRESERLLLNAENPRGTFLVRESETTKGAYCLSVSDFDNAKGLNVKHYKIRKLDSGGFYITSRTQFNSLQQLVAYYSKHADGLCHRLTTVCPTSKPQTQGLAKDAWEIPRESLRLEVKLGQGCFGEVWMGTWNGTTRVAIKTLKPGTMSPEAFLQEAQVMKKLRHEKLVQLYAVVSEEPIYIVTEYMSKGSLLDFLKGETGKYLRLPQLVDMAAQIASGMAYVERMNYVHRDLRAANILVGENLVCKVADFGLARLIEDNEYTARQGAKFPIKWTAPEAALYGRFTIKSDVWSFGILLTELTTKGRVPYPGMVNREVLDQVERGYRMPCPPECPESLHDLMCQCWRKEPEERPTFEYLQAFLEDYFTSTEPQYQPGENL
T2 sequence (P42685 whole entry): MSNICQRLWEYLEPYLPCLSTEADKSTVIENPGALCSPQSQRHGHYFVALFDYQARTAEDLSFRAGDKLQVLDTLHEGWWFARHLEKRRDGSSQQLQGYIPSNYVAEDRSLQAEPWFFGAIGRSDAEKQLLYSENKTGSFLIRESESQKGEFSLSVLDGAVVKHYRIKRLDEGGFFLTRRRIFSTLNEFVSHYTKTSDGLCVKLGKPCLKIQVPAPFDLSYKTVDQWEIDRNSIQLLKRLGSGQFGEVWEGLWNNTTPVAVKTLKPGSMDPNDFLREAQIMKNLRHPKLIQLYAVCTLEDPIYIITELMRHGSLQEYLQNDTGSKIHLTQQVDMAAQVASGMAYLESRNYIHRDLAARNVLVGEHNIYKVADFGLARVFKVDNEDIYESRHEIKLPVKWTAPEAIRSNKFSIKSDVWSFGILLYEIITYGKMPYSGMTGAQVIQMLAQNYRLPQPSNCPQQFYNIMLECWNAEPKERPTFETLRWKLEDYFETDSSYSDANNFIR
T6 sequence (P04626 23-1255): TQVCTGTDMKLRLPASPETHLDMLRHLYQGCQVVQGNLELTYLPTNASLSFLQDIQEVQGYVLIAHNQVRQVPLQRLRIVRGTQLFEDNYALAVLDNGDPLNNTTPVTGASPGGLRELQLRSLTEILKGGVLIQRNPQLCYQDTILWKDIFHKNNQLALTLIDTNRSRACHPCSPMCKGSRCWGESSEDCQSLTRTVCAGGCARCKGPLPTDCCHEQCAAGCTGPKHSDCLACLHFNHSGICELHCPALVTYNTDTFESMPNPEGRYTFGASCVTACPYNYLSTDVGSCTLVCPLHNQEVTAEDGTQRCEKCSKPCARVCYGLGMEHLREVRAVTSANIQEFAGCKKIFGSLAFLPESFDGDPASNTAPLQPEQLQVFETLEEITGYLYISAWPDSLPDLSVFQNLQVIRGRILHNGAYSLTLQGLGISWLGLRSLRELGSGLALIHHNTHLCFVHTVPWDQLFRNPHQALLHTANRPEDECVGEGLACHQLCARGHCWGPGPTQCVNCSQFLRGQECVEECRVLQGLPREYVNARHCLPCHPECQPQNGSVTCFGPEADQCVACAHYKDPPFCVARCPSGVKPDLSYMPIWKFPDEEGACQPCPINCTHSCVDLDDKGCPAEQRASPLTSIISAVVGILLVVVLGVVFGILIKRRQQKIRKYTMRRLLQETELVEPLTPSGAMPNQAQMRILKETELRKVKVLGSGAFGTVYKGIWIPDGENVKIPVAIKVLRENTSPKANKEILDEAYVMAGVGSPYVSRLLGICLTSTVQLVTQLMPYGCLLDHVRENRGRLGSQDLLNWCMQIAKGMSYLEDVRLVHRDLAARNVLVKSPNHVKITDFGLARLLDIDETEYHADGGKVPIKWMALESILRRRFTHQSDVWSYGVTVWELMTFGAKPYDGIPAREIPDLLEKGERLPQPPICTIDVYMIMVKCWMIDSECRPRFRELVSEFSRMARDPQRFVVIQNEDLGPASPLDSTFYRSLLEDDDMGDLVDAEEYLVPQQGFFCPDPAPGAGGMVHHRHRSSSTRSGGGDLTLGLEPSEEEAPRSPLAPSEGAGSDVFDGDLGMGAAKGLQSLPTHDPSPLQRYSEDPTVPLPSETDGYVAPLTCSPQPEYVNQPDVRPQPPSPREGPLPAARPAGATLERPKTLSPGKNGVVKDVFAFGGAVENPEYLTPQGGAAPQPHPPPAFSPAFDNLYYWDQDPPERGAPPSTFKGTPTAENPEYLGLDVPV
Chain of EGFR (P00533 25-1210): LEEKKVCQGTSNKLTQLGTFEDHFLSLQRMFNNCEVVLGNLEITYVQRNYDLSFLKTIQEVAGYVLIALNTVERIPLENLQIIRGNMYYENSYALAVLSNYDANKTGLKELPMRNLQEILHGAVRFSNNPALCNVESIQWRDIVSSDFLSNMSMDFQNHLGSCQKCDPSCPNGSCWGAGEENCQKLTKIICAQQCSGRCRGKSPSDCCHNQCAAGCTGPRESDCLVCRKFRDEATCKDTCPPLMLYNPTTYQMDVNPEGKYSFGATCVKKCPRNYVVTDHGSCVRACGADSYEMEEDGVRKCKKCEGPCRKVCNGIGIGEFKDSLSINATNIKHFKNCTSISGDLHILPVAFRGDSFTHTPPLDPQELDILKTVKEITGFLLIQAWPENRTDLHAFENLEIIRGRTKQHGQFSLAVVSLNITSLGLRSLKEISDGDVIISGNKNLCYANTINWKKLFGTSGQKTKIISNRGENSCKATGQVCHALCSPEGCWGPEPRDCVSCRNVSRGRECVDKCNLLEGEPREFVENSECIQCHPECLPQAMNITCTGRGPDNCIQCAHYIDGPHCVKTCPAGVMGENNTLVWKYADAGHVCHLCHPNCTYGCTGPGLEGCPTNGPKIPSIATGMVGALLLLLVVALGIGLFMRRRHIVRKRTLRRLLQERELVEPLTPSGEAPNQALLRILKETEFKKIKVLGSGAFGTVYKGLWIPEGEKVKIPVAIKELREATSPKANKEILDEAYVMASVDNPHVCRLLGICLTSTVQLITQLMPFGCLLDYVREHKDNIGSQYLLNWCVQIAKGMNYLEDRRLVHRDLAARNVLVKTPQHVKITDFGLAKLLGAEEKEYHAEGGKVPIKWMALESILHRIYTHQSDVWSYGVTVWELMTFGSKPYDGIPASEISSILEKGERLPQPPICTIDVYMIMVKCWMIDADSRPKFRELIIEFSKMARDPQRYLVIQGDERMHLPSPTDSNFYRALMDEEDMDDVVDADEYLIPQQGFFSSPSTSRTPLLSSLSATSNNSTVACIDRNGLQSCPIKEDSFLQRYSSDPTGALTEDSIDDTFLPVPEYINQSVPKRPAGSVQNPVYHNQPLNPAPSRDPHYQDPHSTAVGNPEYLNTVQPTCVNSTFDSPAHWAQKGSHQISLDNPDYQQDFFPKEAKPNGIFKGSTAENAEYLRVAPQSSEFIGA

Structure (SMILES)	GI% DLD1 [1]	IC50 [1]	TOP1 inhibitory activity (semiquantitative score relative to 1 µM CPT) (recombinant human TOP1)	IC50 (FRK)	IC50 (BTK)	IC50 (IGF-1R)	IC50 (VEGFR-2)	IC50 (FAK)	melting point	IC50 (HER-2)	IC50 (EGFR)	GI% Hela [2]	IC50 (VEGFR-1)	GI% HCT-116 [3]	IC50 [3]	IC50 (c-Src)	GI% MCF-7 [4]	GI% MDMBA-231 [5]	fold decreased activity than Gefitinib, EGFR (EGFR; from IC50 values)
COc1cc2nc(-c3ccc(Cl)cc3)cc(OCCCN3CCN(C)CC3)c2cc1OC [6a, 2-(4-chlorophenyl)-6,7-dimethoxy-4–(3-(4-methylpiperazin-1-yl)propoxy)quinoline]	22.56%	> 100 µM	−/+ (−/+: 0–25% 1 µM CPT)	825 nM	1590 nM	1020 nM	268 nM	214.4 ± 1.09 nM	140 to 142 °C	1240 nM	143 ± 2.54 nM	20.15%	95.3 nM	31.34%	65.4 ± 4.37 µM	783 nM	17.34%	9.38%	–
COc1cc2nc(-c3ccc(Cl)cc3)cc(OCCCNC3CCCCC3)c2cc1OC [6b, N-(3-((2–(4-chlorophenyl)-6,7-dimethoxyquinolin-4-yl)oxy)propyl)cyclohexanamine]	36.25%	19.4 ± 2.15 µM	−/+ (−/+: 0–25% 1 µM CPT)	9150 nM	8520 nM	8060 nM	6740 nM	98.2 ± 4.67 nM	118 to 120 °C	123 nM	45.3 ± 5.36 nM	12.81%	3330 nM	42.81%	16.8 ± 1.56 µM	2500 nM	23.49%	19.67%	–
COc1cc2nc(-c3ccc(Cl)cc3)cc(OCCCNC3CCN(C)CC3)c2cc1OC [6c, N-(3-((2–(4-chlorophenyl)-6,7-dimethoxyquinolin-4-yl)oxy)propyl)-1-methylpiperidin-4-amine]	28.22%	47 ± 2.46 µM	−/+ (−/+: 0–25% 1 µM CPT)	1560 nM	2250 nM	2030 nM	405 nM	45.7 ± 3.4 nM	124 to 126 °C	1380 nM	85.7 ± 6.46 nM	4.96%	606 nM	41.36%	13.7 ± 1.29 µM	1500 nM	15.76%	19.38%	2 fold
COc1cc2nc(-c3ccc(Cl)cc3)cc(OCCCNCC3CCCO3)c2cc1OC (stereo not shown) [6d, 3-((2–(4-chlorophenyl)-6,7-dimethoxyquinolin-4-yl)oxy)-N-((tetrahydrofuran-2-yl)methy-l)propan-1-amine]	75.64%	8.15 ± 1.05 µM	−/+ (−/+: 0–25% 1 µM CPT)	507 nM	1370 nM	1590 nM	492 nM	37 ± 2.34 nM	108 to 110 °C	695 nM	46.4 ± 4.09 nM	26.98%	303 nM	82.61%	4.67 ± 0.85 µM	408 nM	71.97%	63.39%	–
COc1cc2nc(-c3ccc(Cl)cc3)cc(OCCCn3ccnc3)c2cc1OC [6e, 4-(3-(1H-imidazol-1-yl)propoxy)-2–(4-chlorophenyl)-6,7-dimethoxyquinoline]	15.79%	> 100 µM	−/+ (−/+: 0–25% 1 µM CPT)	9000 nM	4940 nM	2160 nM	3760 nM	211 ± 8.96 nM	209 to 211 °C	82.1 nM	157 ± 11.4 nM	22.36%	7330 nM	22.03%	> 100 µM	198 nM	5.34%	4.67%	–
COc1cc2nc(-c3ccc(C(F)(F)F)cc3)cc(OCCCNC3CCCCC3)c2cc1OC [6g, N-(3-((6,7-dimethoxy-2–(4-(trifluoromethyl)phenyl)quinolin-4-yl)oxy)propyl)cyclohexan-amine]	25.36%	75.4 ± 5.46 µM	0	1280 nM	4760 nM	1480 nM	997 nM	146 ± 10.5 nM	131 to 133 °C	455 nM	365 ± 14.8 nM	46.28%	1110 nM	22.16%	46.8 ± 3.16 µM	2760 nM	76.38%	48.15%	–
COc1cc2nc(-c3ccc(C(F)(F)F)cc3)cc(OCCCn3ccnc3)c2cc1OC [6j, 4-(3-(1H-imidazol-1-yl)propoxy)-6,7-dimethoxy-2–(4-(trifluoromethyl)phenyl)quinoline]	6.31%	> 100 µM	0	139 nM	185 nM	219 nM	392 nM	186 ± 6.22 nM	217 to 219 °C	206 nM	258 ± 11.9 nM	5.67%	769 nM	2.46%	> 100 µM	186 nM	14.67%	8.42%	–
COc1cc2ncnc(Nc3ccc(F)c(Cl)c3)c2cc1OCCCN1CCOCC1 [Gefitinib, reference compound]	–	–	–	–	–	–	–	–	–	–	–	–	–	–	6.94 ± 1.24 µM	–	–	–	–
CNC(=O)c1ccccc1Nc1nc(Nc2ccc(N3CCOCC3)cc2OC)ncc1Cl [TAE226, reference compound]	–	0.12 ± 0.05 µM	–	–	–	–	–	–	–	–	–	–	–	–	0.17 ± 0.04 µM	–	–	–	–
